Test results as given in the NIST ThermoML archive (doi:10.1016/j.jct.2009.06.021).
Numbers after ± are expanded uncertainties.

What was measured:
[1] = for surface tension liquid-gas: Maximal bubble pressure; for mass density: 101.33 kPa, Liquid, Vibrating tube method
[2] = xn = mol fraction of the nth substance listed; conditions: for surface tension liquid-gas: Maximal bubble pressure; for mass density: 101 kPa, Liquid, Vibrating tube method

ClC(Cl)(Cl)Cl [tetrachloromethane]
[1]
Conditions	mass density [kg/m3]	surface tension liquid-gas [mN/m]
298.15 K	1584.36 ± 0.76	24.2 ± 0.3
303.15 K	1574.61 ± 0.75	23.7 ± 0.3
308.15 K	1564.83 ± 0.74	23 ± 0.3
313.15 K	1554.96 ± 0.73	22.3 ± 0.3

CC[S+]([O-])CC [diethyl sulfoxide]
[1]
Conditions	mass density [kg/m3]	surface tension liquid-gas [mN/m]
298.15 K	1009.51 ± 0.24	34.6 ± 0.3
303.15 K	1005.14 ± 0.24	34.3 ± 0.3
308.15 K	1000.77 ± 0.23	34 ± 0.3
313.15 K	996.4 ± 0.23	33.7 ± 0.3

CCCS(=O)CCC [dipropyl sulfoxide]
[1]
Conditions	mass density [kg/m3]	surface tension liquid-gas [mN/m]
298.15 K	957.77 ± 0.23	32.6 ± 0.3
303.15 K	953.67 ± 0.23	32 ± 0.3
308.15 K	949.58 ± 0.23	31.5 ± 0.3
313.15 K	945.5 ± 0.2	31 ± 0.3

CCCS(=O)CCC [dipropyl sulfoxide] + ClC(Cl)(Cl)Cl
[2]
Conditions	mass density, 298.15 K [kg/m3]	mass density, 303.15 K [kg/m3]	mass density, 308.15 K [kg/m3]	mass density, 313.15 K [kg/m3]	surface tension liquid-gas, 298.15 K [mN/m]	surface tension liquid-gas, 303.15 K [mN/m]	surface tension liquid-gas, 308.15 K [mN/m]	surface tension liquid-gas, 313.15 K [mN/m]
x2 = 0.0837	997.89 ± 0.25	993.53 ± 0.25	989.15 ± 0.25	984.79 ± 0.25	–	–	–	–
x2 = 0.2049	–	–	–	–	31.2 ± 0.3	30.8 ± 0.3	30.4 ± 0.3	29.9 ± 0.3
x2 = 0.2132	1061.92 ± 0.3	1057.03 ± 0.29	1052.27 ± 0.29	1047.44 ± 0.28	–	–	–	–
x2 = 0.2784	1097.07 ± 0.33	1091.98 ± 0.32	1086.9 ± 0.3	1081.81 ± 0.31	–	–	–	–
x2 = 0.2998	–	–	–	–	30.8 ± 0.3	30.4 ± 0.3	29.9 ± 0.3	29.5 ± 0.3
x2 = 0.4165	–	–	–	–	30.4 ± 0.3	29.8 ± 0.3	29.3 ± 0.3	28.7 ± 0.3
x2 = 0.4545	1197.46 ± 0.41	1191.59 ± 0.4	1185.73 ± 0.4	1179.84 ± 0.39	–	–	–	–
x2 = 0.5304	–	–	–	–	29.6 ± 0.3	28.9 ± 0.3	28.2 ± 0.3	27.7 ± 0.3
x2 = 0.6109	–	–	–	–	28.8 ± 0.3	28.1 ± 0.3	27.5 ± 0.3	26.9 ± 0.3
x2 = 0.6285	1305.93 ± 0.5	1299.22 ± 0.5	1292.38 ± 0.49	1285.53 ± 0.49	–	–	–	–
x2 = 0.704	1356.22 ± 0.55	1348.94 ± 0.55	1341.67 ± 0.54	1334.38 ± 0.53	–	–	–	–
x2 = 0.7078	–	–	–	–	27.6 ± 0.3	26.9 ± 0.3	26.2 ± 0.3	25.7 ± 0.3
x2 = 0.8055	–	–	–	–	26.3 ± 0.3	25.7 ± 0.3	25.1 ± 0.3	24.5 ± 0.3
x2 = 0.8468	1461.39 ± 0.65	1453.03 ± 0.64	1444.65 ± 0.63	1436.24 ± 0.63	–	–	–	–
x2 = 0.8547	1466.95 ± 0.66	1458.55 ± 0.65	1450.15 ± 0.64	1441.7 ± 0.6	–	–	–	–
x2 = 0.8995	–	–	–	–	25.3 ± 0.3	24.7 ± 0.3	24.1 ± 0.3	23.5 ± 0.3
x2 = 0.9178	1516.99 ± 0.71	1508.02 ± 0.7	1499.04 ± 0.69	1490.03 ± 0.68	–	–	–	–
x2 = 0.9588	1550.62 ± 0.74	1541.21 ± 0.73	1531.83 ± 0.72	1522.41 ± 0.71	–	–	–	–

C[S+](C)[O-] [dimethyl sulfoxide]
[1]
Conditions	mass density [kg/m3]	surface tension liquid-gas [mN/m]
298.15 K	1095.35 ± 0.31	42.5 ± 0.4
303.15 K	1090.33 ± 0.3	42 ± 0.4
308.15 K	1085.32 ± 0.3	41.5 ± 0.4
313.15 K	1080.29 ± 0.29	41 ± 0.4

CCCCS(=O)CCCC [dibutyl sulfoxide] + ClC(Cl)(Cl)Cl
[2], 313.15 K
Conditions	mass density [kg/m3]	surface tension liquid-gas [mN/m]
x2 = 0.1074	963.82 ± 0.25	–
x2 = 0.2232	–	28 ± 0.3
x2 = 0.2288	1017.38 ± 0.26	–
x2 = 0.303	1052.44 ± 0.29	–
x2 = 0.4057	1106.17 ± 0.33	–
x2 = 0.4457	–	27.3 ± 0.3
x2 = 0.4984	1157.99 ± 0.38	–
x2 = 0.51	–	27 ± 0.3
x2 = 0.5476	–	26.7 ± 0.3
x2 = 0.601	1222.74 ± 0.44	–
x2 = 0.6539	–	25.9 ± 0.3
x2 = 0.7009	1292.11 ± 0.5	–
x2 = 0.7038	–	25.4 ± 0.3
x2 = 0.7998	–	24.5 ± 0.3
x2 = 0.8019	1370.59 ± 0.57	–
x2 = 0.8962	–	23.5 ± 0.3

CC[S+]([O-])CC [diethyl sulfoxide] + ClC(Cl)(Cl)Cl
[2]
Conditions	mass density, 298.15 K [kg/m3]	mass density, 303.15 K [kg/m3]	mass density, 308.15 K [kg/m3]	mass density, 313.15 K [kg/m3]	surface tension liquid-gas, 298.15 K [mN/m]	surface tension liquid-gas, 303.15 K [mN/m]	surface tension liquid-gas, 308.15 K [mN/m]	surface tension liquid-gas, 313.15 K [mN/m]
x2 = 0.0408	1036.23 ± 0.28	1031.26 ± 0.28	1024.88 ± 0.28	1020.51 ± 0.27	–	–	–	–
x2 = 0.1016	–	–	–	–	35 ± 0.3	34.7 ± 0.3	34.1 ± 0.3	33.6 ± 0.3
x2 = 0.1065	1074.77 ± 0.31	1069.42 ± 0.31	1064.04 ± 0.3	1058.67 ± 0.3	–	–	–	–
x2 = 0.218	–	–	–	–	33.9 ± 0.3	33.4 ± 0.3	32.7 ± 0.3	32.1 ± 0.3
x2 = 0.2249	1142.65 ± 0.36	1137.29 ± 0.36	1131.92 ± 0.36	1126.55 ± 0.35	–	–	–	–
x2 = 0.3172	–	–	–	–	32 ± 0.3	31.5 ± 0.3	30.9 ± 0.3	30.3 ± 0.3
x2 = 0.3231	1198.5 ± 0.41	1192.67 ± 0.4	1186.82 ± 0.4	1180.98 ± 0.39	–	–	–	–
x2 = 0.4093	–	–	–	–	30.3 ± 0.3	29.8 ± 0.3	29.2 ± 0.3	28.6 ± 0.3
x2 = 0.4567	1273.33 ± 0.47	1266.87 ± 0.47	1260.4 ± 0.5	1253.92 ± 0.46	–	–	–	–
x2 = 0.4782	–	–	–	–	29.1 ± 0.3	28.6 ± 0.3	28.1 ± 0.3	27.6 ± 0.3
x2 = 0.5102	–	–	–	–	28.5 ± 0.3	28 ± 0.3	27.6 ± 0.3	27.1 ± 0.3
x2 = 0.6562	–	–	–	–	27 ± 0.3	26.5 ± 0.3	25.9 ± 0.3	25.3 ± 0.3
x2 = 0.7363	1433.49 ± 0.62	1425.5 ± 0.6	1417.48 ± 0.6	1409.44 ± 0.6	–	–	–	–
x2 = 0.7512	–	–	–	–	26.2 ± 0.3	25.7 ± 0.3	25.1 ± 0.3	24.5 ± 0.3
x2 = 0.8701	–	–	–	–	25.3 ± 0.3	24.7 ± 0.3	24.1 ± 0.3	23.5 ± 0.3
x2 = 0.8985	1527.46 ± 0.71	1519.07 ± 0.7	1509.96 ± 0.69	1500.84 ± 0.68	–	–	–	–
x2 = 0.9419	–	–	–	–	24.6 ± 0.3	24 ± 0.3	23.5 ± 0.3	22.9 ± 0.3
x2 = 0.9533	1558.34 ± 0.74	1548.91 ± 0.73	1539.42 ± 0.72	1529.92 ± 0.71	–	–	–	–

CCCCS(=O)CCCC [dibutyl sulfoxide]
[1], 313.15 K
Conditions	mass density [kg/m3]	surface tension liquid-gas [mN/m]
–	922.34 ± 4.6	28.5 ± 0.3
